Patent US9062124B2, “GIP-based mixed agonists for treatment of metabolic disorders and obesity” (priority 2008, dated 2015)
Where a SMILES comes first, the peptide text is derived from it. Bridges are numbered along the chain shown (N, C = ends). [ ]: non-standard residue; d: D form. PhLac = O=C(O)[C@@H](O)Cc1ccccc1; Dab = NCC[C@H](N)C(=O)O; Aib = CC(C)(N)C(=O)O

How the values were obtained:
glucagon receptor = molecular target: T1, glucagon receptor (Homo sapiens, UniProt P47871); assay: cAMP synthesis functional assay (firefly luciferase reporter in HEK293 cells), glucagon receptor; assay type: cell-based; settings: for EC50: Glucagon Receptor EC50, nM; for EC50 / Glucagon Receptor relative activity: Table 1; for Glucagon Receptor relative activity: relative to the native hormone of the indicated receptor
T1 construct: expressed in transfected cells; host or cells: HEK293

GLP-1 receptor = molecular target: T2, GLP-1 receptor (Homo sapiens, UniProt P43220); assay: cAMP synthesis functional assay (firefly luciferase reporter in HEK293 cells), GLP-1 receptor; assay type: cell-based; settings: Table 1; for GLP-1 Receptor relative activity: relative to the native hormone of the indicated receptor; for EC50: GLP-1 Receptor EC50, nM
T2 construct: expressed in transfected cells; host or cells: HEK293
T2 sequence (P43220 24-463, species assumed): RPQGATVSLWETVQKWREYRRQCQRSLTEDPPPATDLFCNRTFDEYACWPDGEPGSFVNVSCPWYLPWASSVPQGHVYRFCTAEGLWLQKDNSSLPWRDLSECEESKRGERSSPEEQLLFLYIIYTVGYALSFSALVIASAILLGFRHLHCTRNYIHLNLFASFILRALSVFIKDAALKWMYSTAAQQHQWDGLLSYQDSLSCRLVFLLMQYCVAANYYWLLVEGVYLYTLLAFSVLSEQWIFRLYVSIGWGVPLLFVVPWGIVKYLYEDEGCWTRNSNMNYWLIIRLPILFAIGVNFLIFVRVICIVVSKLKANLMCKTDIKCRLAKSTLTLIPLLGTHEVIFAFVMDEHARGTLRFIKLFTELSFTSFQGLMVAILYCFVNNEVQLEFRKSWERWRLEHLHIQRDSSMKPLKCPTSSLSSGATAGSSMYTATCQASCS

T1 sequence (P47871 26-477): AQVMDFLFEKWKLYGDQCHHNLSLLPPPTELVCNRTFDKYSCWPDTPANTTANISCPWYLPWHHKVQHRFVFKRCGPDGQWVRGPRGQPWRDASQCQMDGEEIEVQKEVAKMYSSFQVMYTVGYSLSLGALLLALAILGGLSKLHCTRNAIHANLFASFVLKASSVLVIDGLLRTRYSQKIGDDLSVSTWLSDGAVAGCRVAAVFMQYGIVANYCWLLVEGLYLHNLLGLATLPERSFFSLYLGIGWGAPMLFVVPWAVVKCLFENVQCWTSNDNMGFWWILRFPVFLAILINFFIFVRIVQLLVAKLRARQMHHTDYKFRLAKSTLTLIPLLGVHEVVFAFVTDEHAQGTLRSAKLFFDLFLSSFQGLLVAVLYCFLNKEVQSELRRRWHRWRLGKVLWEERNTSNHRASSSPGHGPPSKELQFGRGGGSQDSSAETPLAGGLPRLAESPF

| Structure (SMILES) | % activity* (glucagon receptor; Table 7, glucagon receptor) [%] | EC50 (glucagon receptor) [nM] | Glucagon Receptor relative activity (glucagon receptor) [%] | GLP-1 Receptor relative activity (GLP-1 receptor) [%] | EC50 (GLP-1 receptor) [nM] |
| --- | --- | --- | --- | --- | --- |
| CC(=O)NCC[C@H](NC(=O)[C@H](CO)NC(=O)[C@@H](N)Cc1c[nH]cn1)C(=O)NCC(=O)N[C@H](C(=O)N[C@@H](Cc1ccccc1)C(=O)N[C@H](C(=O)N[C@@H](CO)C(=O)N[C@@H](CC(=O)O)C(=O)N[C@@H](Cc1ccc(O)cc1)C(=O)N[C@@H](CO)C(=O)N[C@@H](CCCCN)C(=O)N[C@@H](Cc1ccc(O)cc1)C(=O)N[C@@H](CC(C)C)C(=O)N[C@@H](CC(=O)O)C(=O)NC(C)(C)C(=O)N[C@@H](CCCNC(=N)N)C(=O)N[C@@H](CCCNC(=N)N)C(=O)N[C@@H](C)C(=O)N[C@H](C(=O)N[C@@H](CC(=O)O)C(=O)N[C@@H](Cc1ccccc1)C(=O)N[C@H](C(=O)N[C@H](C(=O)N[C@@H](Cc1c[nH]c2ccccc12)C(=O)N[C@@H](CC(C)C)C(=O)N[C@@H](CC(C)C)C(=O)N[C@@H](CC(=O)O)C(=O)N[C@@H](CCC(=O)O)C(=O)O)[C@@H](C)O)C(C)C)[C@@H](C)O)[C@@H](C)O)[C@@H](C)O [SEQ ID NO: 256] (H-HS[Dab](Ac)GTFTSDYSKYLD[Aib]RRATDFVTWLLDE-OH; N-terminus and C-terminus assumed) | 46 |  |  |  |  |
| CC[C@H](C)[C@H](NC(=O)[C@H](Cc1ccccc1)NC(=O)[C@H](CCC(=O)O)NC(=O)[C@H](CCCCN)NC(=O)[C@H](CCC(N)=O)NC(=O)[C@H](Cc1c[nH]cn1)NC(=O)[C@@H](NC(=O)[C@@H]1CCC(=O)NCCCC[C@H](NC(=O)[C@H](CO)NC(=O)[C@H](Cc2ccc(O)cc2)NC(=O)[C@H](CC(=O)O)NC(=O)[C@H](CO)NC(=O)[C@@H](NC(=O)[C@H](Cc2ccccc2)NC(=O)[C@@H](NC(=O)CNC(=O)[C@H](CCC(N)=O)NC(=O)[C@H](CO)NC(=O)[C@@H](N)Cc2c[nH]cn2)[C@@H](C)O)[C@@H](C)O)C(=O)N[C@@H](Cc2ccc(O)cc2)C(=O)N[C@@H](CC(C)C)C(=O)N[C@@H](CC(=O)O)C(=O)N1)[C@@H](C)CC)C(=O)N[C@@H](C)C(=O)N[C@@H](Cc1c[nH]c2ccccc12)C(=O)N[C@@H](CC(C)C)C(=O)N[C@@H](CCSC)C(=O)N[C@@H](CC(N)=O)C(=O)N[C@H](C(N)=O)[C@@H](C)O [mt-63] |  | 3.15 | 6.03 | 12.90 |  |
| CC[C@H](C)[C@H](NC(=O)[C@H](Cc1ccccc1)NC(=O)[C@H](CCC(=O)O)NC(=O)[C@@H]1CCCCNC(=O)CC[C@H](NC(=O)[C@H](CC(=O)O)NC(=O)[C@H](CC(C)C)NC(=O)[C@H](Cc2ccc(O)cc2)NC(=O)[C@@H](NC(=O)[C@H](CO)NC(=O)[C@H](Cc2ccc(O)cc2)NC(=O)[C@H](CC(=O)O)NC(=O)[C@H](CO)NC(=O)[C@@H](NC(=O)[C@H](Cc2ccccc2)NC(=O)[C@@H](NC(=O)CNC(=O)[C@H](CCC(N)=O)NC(=O)[C@H](CO)NC(=O)[C@@H](N)Cc2c[nH]cn2)[C@@H](C)O)[C@@H](C)O)[C@@H](C)CC)C(=O)N[C@@H]([C@@H](C)CC)C(=O)N[C@@H](Cc2c[nH]cn2)C(=O)N[C@@H](CCC(N)=O)C(=O)N1)C(=O)N[C@@H](CS)C(=O)N[C@@H](Cc1c[nH]c2ccccc12)C(=O)N[C@@H](CC(C)C)C(=O)N[C@@H](CC(C)C)C(=O)N[C@@H](C)C(=O)N[C@@H](CCC(N)=O)C(N)=O [mt-84] (H-HSQGTFTSDYSIYLDEIHQKEFICWLLAQ-NH2; lactam 16-20; N-terminus assumed) |  | 0.45 | 13.33 | 50.00 | 0.16 |
| CC[C@H](C)[C@H](NC(=O)[C@H](Cc1ccccc1)NC(=O)[C@@H]1CCC(=O)NCCCC[C@@H]2NC(=O)[C@@H](NC(=O)[C@H](CC(=O)O)NC(=O)[C@H](CC(C)C)NC(=O)[C@H](Cc3ccc(O)cc3)NC(=O)[C@@H](NC(=O)[C@H](CO)NC(=O)[C@H](Cc3ccc(O)cc3)NC(=O)[C@H](CC(=O)O)NC(=O)[C@H](CO)NC(=O)[C@@H](NC(=O)[C@H](Cc3ccccc3)NC(=O)[C@@H](NC(=O)CNC(=O)[C@H](CCC(N)=O)NC(=O)[C@H](CO)NC(=O)[C@@H](N)Cc3c[nH]cn3)[C@@H](C)O)[C@@H](C)O)[C@@H](C)CC)CCC(=O)NCCCC[C@H](NC(=O)[C@H](CCC(N)=O)NC(=O)[C@H](Cc3c[nH]cn3)NC2=O)C(=O)N1)C(=O)N[C@@H](C)C(=O)N[C@@H](Cc1c[nH]c2ccccc12)C(=O)N[C@@H](CC(C)C)C(=O)N[C@@H](CC(C)C)C(=O)N[C@@H](C)C(=O)N[C@@H](CCC(N)=O)C(N)=O [mt-93] |  |  | 14.33 | 150.00 | 0.04 |
| CC[C@H](C)[C@H](NC(=O)[C@H](CO)NC(=O)[C@H](Cc1ccc(O)cc1)NC(=O)[C@H](CC(=O)O)NC(=O)[C@H](CO)NC(=O)[C@@H](NC(=O)[C@@H](O)Cc1ccccc1)[C@@H](C)CC)C(=O)N[C@@H](C)C(=O)N[C@@H](CCSC)C(=O)N[C@@H](CC(=O)O)C(=O)N[C@H]1CCC(=O)NCCCC[C@@H](C(=O)N[C@@H](CC(=O)O)C(=O)N[C@@H](Cc2ccccc2)C(=O)N[C@H](C(=O)N[C@@H](CC(N)=O)C(=O)N[C@@H](Cc2c[nH]c3ccccc23)C(=O)N[C@@H](CC(C)C)C(=O)N[C@@H](CC(C)C)C(=O)N[C@@H](C)C(=O)N[C@@H](CCC(N)=O)C(N)=O)C(C)C)NC(=O)[C@H](CCC(N)=O)NC(=O)[C@H](Cc2c[nH]cn2)NC(=O)[C@H]([C@@H](C)CC)NC1=O [mt-113] (H-[PhLac]ISDYSIAMDEIHQKDFVNWLLAQ-NH2; lactam 11-15) |  |  | 0.07 | 0.04 |  |
| CC[C@H](C)[C@@H]1NC(=O)[C@@H](NC(=O)[C@H](CC(=O)O)NC(=O)[C@H](CC(C)C)NC(=O)[C@H](Cc2ccc(O)cc2)NC(=O)[C@H](CCCCN)NC(=O)[C@H](CO)NC(=O)[C@H](Cc2ccc(O)cc2)NC(=O)[C@H](CC(=O)O)NC(=O)[C@H](CO)NC(=O)[C@@H](NC(=O)[C@@H](O)Cc2ccccc2)[C@@H](C)O)CCC(=O)NCCCC[C@@H](C(=O)N[C@@H](CC(=O)O)C(=O)N[C@@H](Cc2ccccc2)C(=O)N[C@H](C(=O)N[C@@H](CC(N)=O)C(=O)N[C@@H](Cc2c[nH]c3ccccc23)C(=O)N[C@@H](CC(C)C)C(=O)N[C@@H](CC(C)C)C(=O)N[C@@H](C)C(=O)N[C@@H](CCC(N)=O)C(N)=O)C(C)C)NC(=O)[C@H](CCC(N)=O)NC(=O)[C@H](Cc2c[nH]cn2)NC1=O [mt-114] (H-[PhLac]TSDYSKYLDEIHQKDFVNWLLAQ-NH2; lactam 11-15) |  |  | 0.28 | 0.05 |  |
| CC[C@H](C)[C@H](NC(=O)[C@H](CO)NC(=O)[C@H](Cc1ccc(O)cc1)NC(=O)[C@H](CC(=O)O)NC(=O)[C@H](CO)NC(=O)[C@@H](NC(=O)[C@H](Cc1ccccc1)NC(=O)[C@@H](NC(=O)CN)[C@@H](C)O)[C@@H](C)O)C(=O)N[C@@H](Cc1ccc(O)cc1)C(=O)N[C@@H](CC(C)C)C(=O)N[C@@H](CC(=O)O)C(=O)N[C@H]1CCC(=O)NCCCC[C@@H](C(=O)N[C@@H](CCC(=O)O)C(=O)N[C@@H](Cc2ccccc2)C(=O)N[C@H](C(=O)N[C@@H](CC(N)=O)C(=O)N[C@@H](Cc2c[nH]c3ccccc23)C(=O)N[C@@H](CC(C)C)C(=O)N[C@@H](CC(C)C)C(=O)N[C@@H](C)C(=O)NCC(N)=O)C(C)C)NC(=O)[C@H](C)NC(=O)[C@H](C)NC(=O)[C@H](CCC(N)=O)NC1=O [mt-197] (H-GTFTSDYSIYLDEQAAKEFVNWLLAG-NH2; lactam 13-17; N-terminus assumed) |  |  | 0.13 | 0.07 |  |
